This passage reports IC50 and MIC results from ChEMBL document CHEMBL1149281, “Structure-activity relationship of 6-methylidene penems bearing tricyclic heterocycles as broad-spectrum beta-lactamase inhibitors: crystallographic structures show unexpected binding of 1,4-thiazepine intermediates” (J Med Chem, 2004).

What is called IC50 is the point on the concentration scale where inhibition reaches its midpoint. A low value points to greater potency in that assay. What is called MIC is the least concentration at which growth counts as inhibited.

Some results are limits rather than exact numbers.

The nature of assay [1]: Inhibition of Enterobacter cloacae class C beta lactamase GC1.
In assay [2] the test system is Enterobacter cloacae. The assay is described as follows: Antimicrobial activity against Enterobacter cloacae GC 1477 expressing AmpC in presence of 4 ug/mL piperacillin. The class given is functional.
The subject of assay [3] is Escherichia coli. As to the kind of experiment: Antimicrobial activity against Escherichia coli GC 2847 expressing TEM1 in presence of 4 ug/mL piperacillin. Type of assay: functional.
The subject of assay [4] is Serratia marcescens. The assay is described as follows: Antimicrobial activity against Serratia marcescens GC 4142 expressing AmpC in presence of 4 ug/mL piperacillin. The class given is functional.
The next assay concerns the target T1, Beta-lactamase SHV-1 (Escherichia coli, UniProt P0AD63).
T1 sequence (P0AD63 whole entry): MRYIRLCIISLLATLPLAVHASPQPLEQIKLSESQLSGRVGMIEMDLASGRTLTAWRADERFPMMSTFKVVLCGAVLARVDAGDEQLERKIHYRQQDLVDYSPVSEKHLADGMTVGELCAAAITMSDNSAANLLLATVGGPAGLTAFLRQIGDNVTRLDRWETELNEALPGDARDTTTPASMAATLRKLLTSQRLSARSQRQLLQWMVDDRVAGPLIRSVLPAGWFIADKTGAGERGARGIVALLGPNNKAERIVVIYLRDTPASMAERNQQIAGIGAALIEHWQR
As to the kind of experiment: Inhibition of Escherichia coli SHV1.

The test system of assay [5] is Enterobacter cloacae. As to the kind of experiment: Antimicrobial activity against Enterobacter cloacae GC 2071 expressing Imi1 and AmpC in presence of 4 ug/mL piperacillin. The class given is functional.
The subject of assay [6] is Escherichia coli. As to the kind of experiment: Antimicrobial activity against Escherichia coli GC 2805 expressing CcrA in presence of 4 ug/mL piperacillin. Type of assay: functional.
For assay [7], the system named is Escherichia coli. The assay is described as follows: Antimicrobial activity against Escherichia coli GC 2844 in presence of 4 ug/mL piperacillin. Type of assay: functional.
Assay [8] concerns Escherichia coli. As to the kind of experiment: Antimicrobial activity against Escherichia coli GC 2804 expressing Imp in presence of 4 ug/mL piperacillin. The class given is functional.
For assay [9], the system named is Enterobacter cloacae. The assay is described as follows: Antimicrobial activity against Enterobacter cloacae GC 1475 expressing P99 in presence of 4 ug/mL piperacillin. The class given is functional.
Assay [10] deals with Escherichia coli. As to the kind of experiment: Antimicrobial activity against Escherichia coli GC 2252 expressing IRT2 in presence of 4 ug/mL piperacillin. Type of assay: functional.
Another assay relates to Staphylococcus aureus. As to the kind of experiment: Antimicrobial activity against Staphylococcus aureus GC 2216 in presence of 4 ug/mL piperacillin. Type of assay: functional.
Assay [11] deals with Serratia marcescens. The assay is described as follows: Antimicrobial activity against Serratia marcescens GC 1781 expressing Sme1 and AmpC in presence of 4 ug/mL piperacillin. Type of assay: functional.
Assay [12] concerns Escherichia coli. As to the kind of experiment: Antimicrobial activity against Escherichia coli GC 2920 expressing IRT2 in presence of 4 ug/mL piperacillin. Type of assay: functional.
Assay [13] deals with Escherichia coli. As to the kind of experiment: Antimicrobial activity against Escherichia coli GC 2203 in presence of 4 ug/mL piperacillin. Type of assay: functional.
The target of the next assay is Beta-lactamase (Enterobacter cloacae, UniProt P05364).
In another assay the test system is Pseudomonas aeruginosa. As to the kind of experiment: Antimicrobial activity against Pseudomonas aeruginosa GC 1764 expressing AmpC in presence of 4 ug/mL piperacillin. Type of assay: functional.
In a further assay the test system is Klebsiella pneumoniae. The assay is described as follows: Antimicrobial activity against Klebsiella pneumoniae GC 2825 in presence of 4 ug/mL piperacillin. The class given is functional.
In the next assay the target is Beta-lactamase TEM (Escherichia coli, UniProt P62593). The assay is described as follows: Inhibition of Escherichia coli TEM1.
For assay [14], the target named is Metallo-beta-lactamase type 2 (Bacteroides fragilis, UniProt P25910). The assay is described as follows: Inhibition of Bacteroides fragilis CcrA.
Metallo-beta-lactamase type 2, sequence (P25910 whole entry): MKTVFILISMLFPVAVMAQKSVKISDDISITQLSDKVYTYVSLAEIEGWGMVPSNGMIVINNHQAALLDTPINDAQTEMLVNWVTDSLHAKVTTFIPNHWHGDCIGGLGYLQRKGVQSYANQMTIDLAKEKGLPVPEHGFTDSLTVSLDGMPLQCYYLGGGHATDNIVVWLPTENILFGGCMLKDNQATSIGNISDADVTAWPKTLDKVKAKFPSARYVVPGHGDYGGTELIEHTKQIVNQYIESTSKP

Beta-lactamase, sequence (P05364 whole entry): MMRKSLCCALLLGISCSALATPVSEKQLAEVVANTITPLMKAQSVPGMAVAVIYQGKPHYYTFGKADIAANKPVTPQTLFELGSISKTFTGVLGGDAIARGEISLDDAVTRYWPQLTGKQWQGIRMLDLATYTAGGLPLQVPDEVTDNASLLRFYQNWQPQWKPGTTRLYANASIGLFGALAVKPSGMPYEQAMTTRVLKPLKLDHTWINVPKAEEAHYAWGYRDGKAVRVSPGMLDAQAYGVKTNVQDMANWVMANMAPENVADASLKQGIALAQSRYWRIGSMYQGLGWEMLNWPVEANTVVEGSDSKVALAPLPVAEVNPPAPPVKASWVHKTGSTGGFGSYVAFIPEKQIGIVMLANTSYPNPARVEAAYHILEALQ
Beta-lactamase TEM, sequence (P62593 whole entry): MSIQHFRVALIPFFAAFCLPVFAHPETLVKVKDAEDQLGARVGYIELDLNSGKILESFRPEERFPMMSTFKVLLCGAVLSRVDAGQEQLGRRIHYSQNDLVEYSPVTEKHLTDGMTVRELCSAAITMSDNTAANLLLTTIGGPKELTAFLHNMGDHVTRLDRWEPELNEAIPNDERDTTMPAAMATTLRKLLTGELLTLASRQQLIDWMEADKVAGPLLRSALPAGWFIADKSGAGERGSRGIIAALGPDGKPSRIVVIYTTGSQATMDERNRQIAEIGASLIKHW

`O=C([O-])C1=CS[C@@H]2/C(=C\c3cn4c5c(sc4n3)CCC5)C(=O)N12.[Na+]`: the IC50 is 3.8 nM in assay [1], 12 nM at Beta-lactamase SHV-1 and 2 nM against Beta-lactamase. The MIC in the assay on Enterobacter cloacae [2] was 16 µg/mL; in the assay on Escherichia coli [3] it was 4 µg/mL; with Serratia marcescens [4] it was 2 µg/mL; in the assay with Enterobacter cloacae [5] it was 4 µg/mL; in the assay with Escherichia coli [6], more than 64 µg/mL; in the assay on Escherichia coli [7] it was 2 µg/mL. The MIC with Escherichia coli [8] is less than 0.06 µg/mL; in the assay on Enterobacter cloacae [9], 16 µg/mL; in the assay with Escherichia coli [10] it was 8 µg/mL; in the assay on Staphylococcus aureus, 2 µg/mL; with Serratia marcescens [11] it was 1 µg/mL; with Escherichia coli [12], 2 µg/mL. The MIC stood at 2 µg/mL in the assay on Escherichia coli [13], 2 µg/mL in the assay on Pseudomonas aeruginosa and 4 µg/mL in the assay on Klebsiella pneumoniae.

On to `Cc1ccc2c(c1)sc1nc(/C=C3/C(=O)N4C(C(=O)[O-])=CS[C@H]34)cn12.[Na+]`, for which the figures for the IC50 (at Beta-lactamase TEM; in [14]; on Beta-lactamase) were 3 nM, 103 nM and 1 nM, respectively. The MIC is 32 µg/mL with Enterobacter cloacae [2]; 4 µg/mL in the assay with Escherichia coli [3]; 1 µg/mL with Serratia marcescens [4]; 8 µg/mL in the assay on Enterobacter cloacae [5]; more than 64 µg/mL with Escherichia coli [6]; 2 µg/mL in the assay on Escherichia coli [7]. Moreover, the MIC was less than 0.06 µg/mL in the assay on Escherichia coli [8]; 8 µg/mL in the assay on Enterobacter cloacae [9]; 16 µg/mL in the assay on Escherichia coli [10]; less than 0.06 µg/mL in the assay with Staphylococcus aureus; 0.5 µg/mL with Serratia marcescens [11]; 2 µg/mL in the assay on Escherichia coli [12]. Also, the MIC worked out at 1 µg/mL in the assay with Escherichia coli [13], 16 µg/mL with Pseudomonas aeruginosa and 8 µg/mL with Klebsiella pneumoniae.

Regarding `O=C([O-])C1=CS[C@@H]2/C(=C\c3cn4c(n3)sc3ccccc34)C(=O)N12.[Na+]`, the MIC with Enterobacter cloacae [2] was 16 µg/mL; with Escherichia coli [3], 2 µg/mL; in the assay on Serratia marcescens [4], 1 µg/mL; in the assay on Enterobacter cloacae [5], 2 µg/mL; with Escherichia coli [6], more than 64 µg/mL; in the assay on Escherichia coli [7], 2 µg/mL. Moreover, the MIC is less than 0.06 µg/mL in the assay on Escherichia coli [8]; 8 µg/mL with Enterobacter cloacae [9]; 8 µg/mL in the assay with Escherichia coli [10]; less than 0.06 µg/mL in the assay on Staphylococcus aureus; 0.5 µg/mL in the assay with Serratia marcescens [11]; 2 µg/mL in the assay on Escherichia coli [12]. In addition, the MIC in the assay on Escherichia coli [13] is 2 µg/mL; in the assay with Pseudomonas aeruginosa, 4 µg/mL; in the assay on Klebsiella pneumoniae it was 16 µg/mL. Besides, on Beta-lactamase, half-maximal inhibition (IC50) required 1 nM.

`Cc1cccc2sc3nc(/C=C4/C(=O)N5C(C(=O)[O-])=CS[C@H]45)cn3c12.[Na+]`: the IC50 on Beta-lactamase TEM stood at 9 nM; in assay [14], 370 nM; at Beta-lactamase, 2 nM. For the same molecule, the MIC in the assay with Enterobacter cloacae [2] is 32 µg/mL; in the assay on Escherichia coli [3], 8 µg/mL; in the assay with Serratia marcescens [4], 4 µg/mL; in the assay on Enterobacter cloacae [5], 16 µg/mL; in the assay with Escherichia coli [6], more than 64 µg/mL; in the assay with Escherichia coli [7], 2 µg/mL. The MIC is less than 0.06 µg/mL in the assay with Escherichia coli [8]; 16 µg/mL with Enterobacter cloacae [9]; 16 µg/mL in the assay on Escherichia coli [10]; less than 0.06 µg/mL with Staphylococcus aureus; 4 µg/mL in the assay on Serratia marcescens [11]; 2 µg/mL in the assay on Escherichia coli [12]. Further, the MIC in the assay with Escherichia coli [13] was 2 µg/mL; with Pseudomonas aeruginosa it was 2 µg/mL; with Klebsiella pneumoniae, 16 µg/mL.

For the molecule `O=C([O-])C1=CS[C@@H]2/C(=C\c3cn4c(n3)sc3cc(F)ccc34)C(=O)N12.[Na+]`, the 50% inhibitory concentration (IC50) against Beta-lactamase TEM amounted to 8 nM; against Beta-lactamase, 2 nM. Further, the MIC was 32 µg/mL with Enterobacter cloacae [2]; 8 µg/mL in the assay with Escherichia coli [3]; 2 µg/mL with Serratia marcescens [4]; 8 µg/mL with Enterobacter cloacae [5]; more than 64 µg/mL in the assay on Escherichia coli [6]; 2 µg/mL in the assay on Escherichia coli [7]. For the same molecule, the minimal inhibitory concentration (MIC) with Escherichia coli [8] is less than 0.06 µg/mL; in the assay on Enterobacter cloacae [9], 16 µg/mL; in the assay with Escherichia coli [10], 16 µg/mL; with Staphylococcus aureus, less than 0.06 µg/mL; with Serratia marcescens [11] it was 2 µg/mL; with Escherichia coli [12], 2 µg/mL. For the same molecule, the values for the MIC with Escherichia coli [13], in the assay on Pseudomonas aeruginosa and with Klebsiella pneumoniae were 2 µg/mL, 4 µg/mL and 16 µg/mL, respectively.

For the molecule `COc1ccc2c(c1)sc1nc(/C=C3/C(=O)N4C(C(=O)[O-])=CS[C@H]34)cn12.[Na+]`, the MIC in the assay on Enterobacter cloacae [2] is 64 µg/mL; in the assay on Escherichia coli [3], 16 µg/mL; with Serratia marcescens [4], 2 µg/mL; in the assay on Enterobacter cloacae [5], 16 µg/mL; with Escherichia coli [6] it was more than 64 µg/mL; with Escherichia coli [7], 2 µg/mL. In addition, the MIC in the assay on Escherichia coli [8] was less than 0.06 µg/mL; in the assay on Enterobacter cloacae [9] it was 16 µg/mL; in the assay with Escherichia coli [10] it was 8 µg/mL; in the assay on Staphylococcus aureus, less than 0.06 µg/mL; in the assay on Serratia marcescens [11], 2 µg/mL; in the assay with Escherichia coli [12] it was 2 µg/mL. Also, the MIC stood at 1 µg/mL in the assay on Escherichia coli [13], 32 µg/mL in the assay with Pseudomonas aeruginosa and 64 µg/mL with Klebsiella pneumoniae. This molecule returned an IC50 against Beta-lactamase of 2 nM.

`O=C([O-])C1=CS[C@@H]2/C(=C\c3cn4c(n3)sc3cc(Cl)ccc34)C(=O)N12.[Na+]`: the IC50 is 6 nM against Beta-lactamase TEM, 74 nM in [14] and 3 nM against Beta-lactamase. Further, the MIC in the assay on Enterobacter cloacae [2] is 16 µg/mL; in the assay on Escherichia coli [3], 4 µg/mL; in the assay on Serratia marcescens [4], 2 µg/mL; in the assay on Enterobacter cloacae [5] it was 8 µg/mL; with Escherichia coli [6] it was more than 64 µg/mL; in the assay with Escherichia coli [7], 2 µg/mL. For the same molecule, the MIC in the assay on Escherichia coli [8] is less than 0.06 µg/mL; with Enterobacter cloacae [9] it was 8 µg/mL; in the assay with Escherichia coli [10], 16 µg/mL; in the assay with Staphylococcus aureus, less than 0.06 µg/mL; with Serratia marcescens [11] it was 1 µg/mL; in the assay on Escherichia coli [12] it was 1 µg/mL. Besides, the MIC amounted to 1 µg/mL in the assay with Escherichia coli [13], 16 µg/mL with Pseudomonas aeruginosa and 32 µg/mL in the assay with Klebsiella pneumoniae.

As for `C[C@]1(Cn2ccnn2)[C@H](C(=O)[O-])N2C(=O)C[C@H]2S1(=O)=O.[Na+]` [TAZOBACTAM SODIUM], the MIC was more than 64 µg/mL in the assay with Enterobacter cloacae [2]; 2 µg/mL in the assay on Escherichia coli [3]; more than 64 µg/mL with Serratia marcescens [4]; more than 64 µg/mL with Enterobacter cloacae [5]; more than 64 µg/mL in the assay with Escherichia coli [6]; 2 µg/mL with Escherichia coli [7]. Moreover, the MIC with Escherichia coli [8] is 0.12 µg/mL; in the assay with Enterobacter cloacae [9] it was more than 64 µg/mL; in the assay with Escherichia coli [10], 2 µg/mL; with Staphylococcus aureus it was 64 µg/mL; with Serratia marcescens [11], 1 µg/mL; with Escherichia coli [12] it was 4 µg/mL. Moreover, the MIC with Escherichia coli [13], in the assay on Pseudomonas aeruginosa and with Klebsiella pneumoniae was more than 64 µg/mL in each case.
